Experiments:
KYSE-70 (Head and Neck) = assay: Cell line screen, KYSE-70; assay type: cell-based; conditions: Homo sapiens, AICDA Expression Low
Method: (§1) The activity of the claimed compounds was measured in a variety of cell lines with different expression levels of activation induced cytidine deaminase (AICDA). The potency assay was repeated in all of the listed cell lines and the EC50 values recorded.

KYSE-510 (Head and Neck) = assay: Cell line screen, KYSE-510; assay type: cell-based; conditions: Homo sapiens, AICDA Expression Negative
Method: as §1

Daudi (Lymphoma) = assay: Cell line screen, Daudi; assay type: cell-based; conditions: Homo sapiens, AICDA Expression High
Method: as §1

WSU-FSCCL (Lymphoma) = assay: Cell line screen, WSU-FSCCL; assay type: cell-based; conditions: AICDA Expression Negative
Method: as §1

[1] = tested on: ARPE19/HPV16 (HPV Immortalized RPE); assay: Cell line screen, ARPE19/HPV16; assay type: cell-based; conditions: ARPE-19, AICDA Expression Negative
Method: as §1

[2] = Human liver microsome stability; assay type: in vitro ADME; conditions: human liver microsomes; for half-life / microsomal CLint: 37° C., 45 minutes; for microsomal CLint: read-out: Clearance (μg/min/mg)
Method: The stability of the claimed compounds was determined in the presences of human liver microsomes. The compounds were incubated with the microsomes at 37° C. for 45 minutes. Samples were analyzed using LC-MS/MS. Data analysis included half-life, clearance rate, and the percentage of hepatic blood flow (% QH) for each of the compounds in the different species.

SNU-1 (Gastric) = assay: Cell line screen, SNU-1; assay type: cell-based; conditions: Homo sapiens, SNU1, AICDA Expression Negative
Method: as §1

[3] = tested on: WI-38 cells (AID negative); assay: Primary screening cell killing assay repeated in WI-38 cells (AID negative); assay type: cell-based; conditions: Homo sapiens, 168 h, cell death on Day 7, Cell-Titer Glo
Summary of the method: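 Cell-killing counter-screen in AID-negative WI-38 cells, probing RAD51 inhibition via AID/RAD51 synthetic lethality. Viability luminescence (RLU) was media-subtracted, normalized to DMSO wells, and converted to percent kill (1 − normalized RLU) × 100; EC50 came from non-linear regression on a semi-log scale.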

SNU-5 (Gastric) = assay: Cell line screen, SNU-5; assay type: cell-based; conditions: Homo sapiens, AICDA Expression Low
Method: as §1

TOV-1120D (Ovary) = assay: Cell line screen, TOV-1120D; assay type: cell-based; conditions: AICDA Expression Negative
Method: as §1

[4] = tested on: WI-38 (Normal Human Lung Fibroblast); assay: Cell line screen, WI-38; assay type: cell-based; conditions: AICDA Expression Negative
Method: as §1

U-698-M (Lymphoma) = assay: Cell line screen, U-698-M; assay type: cell-based; conditions: AICDA Expression High
Method: as §1

[5] = Pharmacokinetic (PK) study, plasma by LC-MS; assay type: in vivo, Rat; conditions: po @ 80 mg/kg (30% PEG400, 10% Vitamin E TPGS in water); for half-life: plasma
Method: PK studies in mice were used to determine the fate of the compounds in a whole organism. Rats were treated with the compounds either orally of via IV at the indicated doses and followed for up to 24 hours. Plasma samples were taken at different time points and analyzed by LC-MS.

OV56 (Ovary) = assay: Cell line screen, OV56; assay type: cell-based; conditions: AICDA Expression Low
Method: as §1

Compound: CC(C)OC(=O)N[C@H]1CC[C@H](c2ncc(-c3ccc(NC(=O)NCc4ccccc4)cc3S(=O)(=O)NC(C)(C)C)s2)CC1 [Ex. 66A, trans-isopropyl N-[4-[5-[4-(benzylcarbamoylamino)-2-(tert-butylsulfamoyl)phenyl]thiazol-2-yl]cyclohexyl]carbamate]
- EC50 (KYSE-70 (Head and Neck)): 2.64 µM
- EC50 (KYSE-510 (Head and Neck)): 4.52 µM
- EC50 (Daudi (Lymphoma)): 0.018 µM
- EC50 (WSU-FSCCL (Lymphoma)): 0.025 µM
- EC50 [1]: > 10 µM
- % QH (percentage of hepatic blood flow) [2]: 49.6%
- half-life [2]: 1.29 h
- microsomal CLint [2]: 18.2 µL/min/mg
- EC50 (SNU-1 (Gastric)): 0.609 µM
- EC50 [3]: > 1 µM
- EC50 (SNU-5 (Gastric)): 2.94 µM
- EC50 (TOV-1120D (Ovary)): 2.38 µM
- EC50 [4]: > 10 µM
- EC50 (U-698-M (Lymphoma)): 0.088 µM
- F (%) @ 5 mg/kg ([5]; Rat Female): 3.31%
- F (%) @ 5 mg/kg ([5]; Rat Male): 2.55%
- half-life ([5]; Rat Female): 2.59 h
- half-life ([5]; Rat Male): 1.86 h
- EC50 (OV56 (Ovary)): 5.94 µM

Compound: CC(C)OC(=O)Nc1ccc(-c2cnc([C@H]3CC[C@H](NC(=O)OC(C)C)CC3)s2)c(S(=O)(=O)NC(C)(C)C)c1 [Ex. 67A, trans-isopropyl N-[3-(tert-butylsulfamoyl)-4-[2-[4-(isopropoxycarbonylamino)cyclohexyl]thiazol-5-yl]phenyl]carbamate]
- EC50 (KYSE-70 (Head and Neck)): 2.63 µM
- EC50 (KYSE-510 (Head and Neck)): 3.4 µM
- EC50 (Daudi (Lymphoma)): 0.311 µM
- EC50 (WSU-FSCCL (Lymphoma)): 0.344 µM
- EC50 [1]: > 10 µM
- % QH (percentage of hepatic blood flow) [2]: <20.3%
- half-life [2]: > 5 h
- microsomal CLint [2]: < 4.6 µL/min/mg
- EC50 (SNU-1 (Gastric)): 2.93 µM
- EC50 [3]: > 1 µM
- EC50 (SNU-5 (Gastric)): 3.85 µM
- EC50 (TOV-1120D (Ovary)): 4.92 µM
- EC50 [4]: > 10 µM
- EC50 (U-698-M (Lymphoma)): 0.791 µM
- F (%) @ 5 mg/kg ([5]; Rat Female): 86.5%
- F (%) @ 5 mg/kg ([5]; Rat Male): 46.9%
- half-life ([5]; Rat Female): 11.5 h
- half-life ([5]; Rat Male): 6.46 h
- EC50 (OV56 (Ovary)): 7.23 µM

Reference: patent US10336746B1, “RAD51 inhibitors” (Cyteir Therapeutics, Inc., priority 2017, dated 2019)
